Data from BindingDB's records for PubMed 11303056 (Kissei Pharmaceutical, 2001).

Tests used:
[1] = target: Beta-3 adrenergic receptor (Homo sapiens, UniProt P13945)
[2] = target: Beta-2 adrenergic receptor (Homo sapiens, UniProt P07550)
Chain of Beta-2 adrenergic receptor (P07550 whole entry): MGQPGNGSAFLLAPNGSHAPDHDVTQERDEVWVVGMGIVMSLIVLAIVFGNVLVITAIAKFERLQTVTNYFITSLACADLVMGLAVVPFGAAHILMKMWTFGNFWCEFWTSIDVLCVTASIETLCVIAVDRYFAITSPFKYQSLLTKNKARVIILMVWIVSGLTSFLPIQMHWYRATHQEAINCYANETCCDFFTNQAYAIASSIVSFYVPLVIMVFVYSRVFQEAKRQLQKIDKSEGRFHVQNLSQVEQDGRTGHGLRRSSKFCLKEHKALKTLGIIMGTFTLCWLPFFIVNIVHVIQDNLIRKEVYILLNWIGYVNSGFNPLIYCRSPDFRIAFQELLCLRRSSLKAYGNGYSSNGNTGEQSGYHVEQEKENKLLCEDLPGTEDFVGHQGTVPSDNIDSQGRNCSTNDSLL

Chain of Beta-3 adrenergic receptor (P13945 whole entry): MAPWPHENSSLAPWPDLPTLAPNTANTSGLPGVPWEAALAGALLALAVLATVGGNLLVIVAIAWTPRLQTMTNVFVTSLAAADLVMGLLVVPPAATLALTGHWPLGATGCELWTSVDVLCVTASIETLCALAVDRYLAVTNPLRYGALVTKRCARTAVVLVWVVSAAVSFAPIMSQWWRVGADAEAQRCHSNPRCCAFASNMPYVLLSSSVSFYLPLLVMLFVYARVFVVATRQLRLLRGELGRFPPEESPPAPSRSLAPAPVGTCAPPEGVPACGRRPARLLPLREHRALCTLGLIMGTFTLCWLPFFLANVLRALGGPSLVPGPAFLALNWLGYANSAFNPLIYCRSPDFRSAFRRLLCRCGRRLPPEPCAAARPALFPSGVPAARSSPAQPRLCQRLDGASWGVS

Q: What does the source list for `CN(C)C(=O)COc1ccc2c(c1)C[C@@H](NC[C@H](O)c1ccc(O)c(CCO)c1)CC2` [KUR-1246]?
A: Ki [1]: > 10000 nM; Ki [2]: 25.7 nM
